Results as given in PubChem BioAssay (NCI).
“And” between values parts separate entries of the source, which are not always exact repeats. Identical values can stand only once.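 Five concentrations, 48 hours, 96-well plates. At the GI50, growth is halved. TGI: concentration producing complete growth inhibition.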 Numbered stars: 1 amine (or outer) side, 2 acyl side, 3 side chain; on linkers, the order of the positions; unused ones are H or OH. *1 amine or outer side, *2 acyl side, *3 side chain or, on linkers, in order; H or OH if unused. Bridge positions count the residues as written; N and C are the ends. Where a SMILES comes first, the peptide text is derived from it. Square brackets hold non-standard residues; d marks the D form. Peptide text beside a SMILES is read from it. I, II: the chains in the order shown. [ ]: non-standard residue; d: D form. The star is where a group is joined. Actinocin(9to1) = Cc1c2oc3c(C)ccc(C(=O)[*:1])c3nc-2c(C(=O)[*:2])c(N)c1=O; X11 = C/C=C/CC(C)C(O)[C@H](N[*:1])C(=O)[*:2]; aThr = C[C@H](O)[C@H](N)C(=O)O; NMeV = CN[C@H](C(=O)O)C(C)C; Decanoyl = CCCCCCCCCC(=O)*; Leu(ol) = CC(C)C[C@H](N)CO; Aib = CC(C)(N)C(=O)O; Sar = CNCC(=O)O

Each compound was assayed on MDA-MB-468 breast (assay: NCI tumour cell line growth inhibition, 48 h).
With `Cc1c2oc3c(C)ccc(C(=O)N[C@@H]4C(=O)N[C@H](C(C)C)C(=O)N5CCC[C@H]5C(=O)N(C)CC(=O)N(C)[C@@H](C(C)C)C(=O)O[C@H]4C)c3nc-2c(C(=O)N[C@@H]2C(=O)N[C@H](C(C)C)C(=O)N3CCC[C@H]3C(=O)N(C)CC(=O)N(C)[C@@H](C(C)C)C(=O)O[C@H]2C)c(N)c1=O` (I: [aThr][dV]P[Sar][NMeV] / II: [aThr][dV]P[Sar][NMeV]; ester I:1-I:C, II:1-II:C; linker I:N-II:N via Actinocin(9to1)) the TGI was 48.5 nM and 15.7 nM. In the case of `CC/C(=C(/c1ccc(OCCN(C)C)cc1)c1ccc(OC(=O)CCCCCCCCC(=O)c2c(C)[nH]c(/C=C3\N=C(c4ccc[nH]4)C=C3OC)c2C)cc1)c1ccccc1`, the GI50 is reported as 3620 nM and the TGI is reported as > 100000 nM. `O=C1OCC2=C1C(c1cccc(Cl)c1)c1cc3c(cc1N2CCO)CCC3` (stereo not given) showed a GI50 of 23.1 nM and a TGI of 840 nM. For `Nc1c(C(=O)Nc2cccc(C(F)(F)F)c2)sc2nc3c(cc12)CCCCCC3`, the GI50 was 798 nM and the TGI was 3320 nM. In the case of `CN1CCN(Cc2ccc(NC(=O)c3cncc(C#Cc4cnc5ccc(N6CCOCC6)nn45)c3)cc2C(F)(F)F)CC1`, the GI50 is reported as 73.5 nM and the TGI is reported as 165 nM. In the case of `Cn1c(=O)c(Oc2ccc(F)cc2F)cc2cnc(NCC(C)(C)O)nc21`, the GI50 is reported as > 25000 nM and the TGI is reported as > 25000 nM. Work on `C=CC(=O)N1CCC[C@@H](n2nc(-c3ccc(Oc4ccccc4)cc3)c3c(N)ncnc32)C1` yielded a GI50 of 67.4 nM and a TGI of 1240 nM. `COc1cc(C)[nH]c(=O)c1CNC(=O)c1c(C)n([C@H](C)C2CCN(CC(F)(F)F)CC2)c2ccccc12` was tested, and the GI50 was 24900 nM and the TGI was > 100000 nM. Work on `COc1cc(N2CCC(N)CC2)ccc1Nc1ncc(Cl)c(-c2c[nH]c3ccccc23)n1` yielded a GI50 of 415 nM and a TGI of 1740 nM. `COc1ncc(-c2ccc3nccc(C#CCCCCC(=O)NO)c3c2)cc1NS(=O)(=O)c1ccc(F)cc1F` gave a GI50 of 21.4 nM and a TGI of 116 nM. `COCCn1c2c([n+](Cc3cnccn3)c1C)C(=O)c1ccccc1C2=O` was tested, and the GI50 was < 10 nM and the TGI was 14.1 nM. Compound `C/C=C/CC(C)C(O)[C@H](NC(=O)[C@@H]1CCCN1C(=O)C(C)(C)NC(=O)CCCCCCCCC)C(=O)NC(C)(C)C(=O)N[C@@H](CCC(N)=O)C(=O)N[C@H](CCC(N)=O)C(=O)NC(C)(C)C(=O)NC(C)(C)C(=O)N[C@@H](CCC(N)=O)C(=O)N[C@H](CC(C)C)C(=O)N[C@H](CO)CC(C)C` (stereo partly drawn) (Decanoyl-[Aib]P[X11][Aib]Q[dQ][Aib][Aib]Q[dL][Leu(ol)]) has a GI50 of 1490 nM and a TGI of 2980 nM. Compound `Cc1cc(C)c2c(c1)N(C)c1ncnc(-n3cnc4cc(C)ccc43)c1CC2C` (stereo not given) has a GI50 of 3240 nM and a TGI of 27000 nM. `C[C@]12CC[C@H]3[C@@H](CC[C@]4(O)C[C@@H](O[C@@H]5O[C@H](CO)[C@@H](O[C@@H]6OC[C@@H](O)[C@H](O)[C@H]6O)[C@H](O)[C@H]5O)CC[C@]34C=O)[C@@]1(O)CC[C@@H]2C1=CC(=O)OC1` was tested, and the GI50 was 10000 nM and the TGI was 32300 nM. Compound `C#CCNC(=O)CC[C@@H](C)[C@H]1CC[C@H]2[C@@H]3CC[C@@H]4CC(=O)CC[C@]4(C)[C@H]3CC[C@]12C` has a GI50 of 13800 nM and a TGI of 45400 nM. `COC(=O)[C@]12CC[C@@H](C)[C@H](C)[C@@H]1C1=CC[C@@H]3[C@@](C)(CC#N)C4=C(C[C@@]3(C)[C@]1(C)CC2)OC[C@]4(C)C=O` was tested, and the GI50 was 10700 nM and the TGI was 42300 nM. Work on `COc1ccc(/C=C\c2cc(OC)c(OC)c(OC)c2)c(NS(=O)(=O)c2ccc(F)cc2)c1O` yielded a GI50 of 69.2 nM. Work on `Nc1ncnc2c1ccn2-c1cccc(NC(=O)c2ccc(N3CCOCC3)c(C(F)(F)F)c2)c1` yielded a GI50 of 2130 nM and a TGI of 7070 nM. In the case of `NC1(C(=O)N[C@@H](CCO)c2ccc(Cl)cc2)CCN(c2ncnc3[nH]ccc23)CC1`, the GI50 is reported as 128 nM and 162 nM and the TGI is reported as 1170 nM and 2210 nM. `CN(C)CCCCNc1ccc(NCCCCN(C)C)c2c1C(=O)c1c(O)ccc(O)c1C2=O` was tested, and the GI50 was 13700 nM and the TGI was 26500 nM. In the case of `COC(=O)Nc1nc2ccc(C(=O)c3ccc(F)cc3)cc2[nH]1`, the GI50 is reported as 812 nM and the TGI is reported as > 100000 nM. Compound `Cc1cc(-c2cc(OC(=O)c3ccccc3)ccc2Cl)cc2nnc(Nc3ccc(OCCN4CCCC4)cc3)nc12` has a GI50 of 1320 nM and a TGI of 2910 nM. `CO/C(=C1/NC(=O)C(Cc2ccc(O)c(Br)c2)N(C)C(=O)C(C)NC(=O)CCC/C=C(\C)CCC(C)OC1=O)c1ccccc1` (stereo not given) gave a GI50 of 21.7 nM. `CC(=O)N[C@@H](Cc1ccc(OP(=O)(O)O)cc1)C(=O)N[C@H]1CCC(=O)N2CCC[C@@H](C(=O)NC3CCc4ccccc43)N2C1=O` (stereo not given in full) was tested, and the GI50 was > 25000 nM and the TGI was > 25000 nM.
